From article doi:10.1101/2023.03.27.534333v1 (biorxiv, 2023)

Tests used:
[1] = target: T1, METTL16 MTD (residues 1-291) (Homo sapiens, UniProt Q86W50); assay: microscale thermophoresis, His-tag RED-tris-NTA labelled protein; format: binding
T1 sequence (Q86W50 1-291): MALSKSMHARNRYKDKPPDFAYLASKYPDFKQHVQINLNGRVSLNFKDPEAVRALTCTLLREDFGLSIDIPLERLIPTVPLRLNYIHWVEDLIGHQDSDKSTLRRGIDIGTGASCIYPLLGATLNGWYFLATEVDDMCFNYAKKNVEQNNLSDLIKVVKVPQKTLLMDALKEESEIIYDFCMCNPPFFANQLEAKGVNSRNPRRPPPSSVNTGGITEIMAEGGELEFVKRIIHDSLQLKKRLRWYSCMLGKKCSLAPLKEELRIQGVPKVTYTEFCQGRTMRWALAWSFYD

full-length METTL16 = target: T2, full-length METTL16 (Homo sapiens, UniProt Q86W50); assay: m6A antibody-based ELISA; format: biochemical
T2 sequence (Q86W50 1-562): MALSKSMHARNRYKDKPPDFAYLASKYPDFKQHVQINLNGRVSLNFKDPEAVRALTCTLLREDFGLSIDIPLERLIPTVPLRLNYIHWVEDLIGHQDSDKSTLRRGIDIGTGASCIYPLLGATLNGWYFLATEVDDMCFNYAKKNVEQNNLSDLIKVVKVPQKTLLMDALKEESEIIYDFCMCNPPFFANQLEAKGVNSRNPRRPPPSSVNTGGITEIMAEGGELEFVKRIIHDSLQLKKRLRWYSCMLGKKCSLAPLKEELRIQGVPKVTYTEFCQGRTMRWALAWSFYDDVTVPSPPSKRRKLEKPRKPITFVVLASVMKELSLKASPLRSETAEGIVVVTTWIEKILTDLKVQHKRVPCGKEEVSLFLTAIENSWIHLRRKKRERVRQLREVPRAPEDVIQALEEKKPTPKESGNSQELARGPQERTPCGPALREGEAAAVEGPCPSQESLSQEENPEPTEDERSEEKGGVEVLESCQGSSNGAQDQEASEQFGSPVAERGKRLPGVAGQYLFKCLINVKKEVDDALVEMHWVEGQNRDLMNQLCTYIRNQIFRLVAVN

Row | IC50 (full-length METTL16) [µM] | SMILES | Kd [1] [µM]
1 | 0.0258 ± 0.0172 | C/C(=N\N=C(/N)S)c1ccccc1 [compound 1, [(E)-(1-phenylethylidene)amino]thiourea] | 3.31 ± 0.61
2 | 0.0609 ± 0.00275 | C/C(=N\NC(N)=S)c1ccc(F)cc1 [compound 2, [(E)-[1-(4-fluorophenyl)ethylidene]amino]thiourea] | 2.84 ± 0.94
